Reference: patent US20160264593A1 (priority 2013, published 2016)
Read-outs that look alike come from different tables or passages of the source.

Columns and labels:
in vivo [1] = settings: male, rat, in vivo; for AUC(0-t): AUC0-t of 100; for AUC(0-inf): AUC0-∞ of 100; for Cmax: Cmax of 100; for Tmax: Tmax of 100; for MRT: MRT of 100; for half-life: T1/2 of 100
Procedure: A pharmacokinetic study of 151 was conducted in SD rats. The study consisted of two dose levels at 1.0 (iv) and 10 (oral) mg/kg. The blood samples were collected at predetermined times from rats and centrifuged to separate plasma. An LC/MS/MS method was developed to determine the test article in plasma samples. The pharmacokinetic parameters of 151 following iv and oral administration to SD rats were calculated. The absolute bioavailability was evaluated.
The final concentration of the test article was 0.2 mg/mL for iv administration and 1.0 mg/mL for oral administration. The test article solutions were administered using the most recent body weight for each animal.
Blood (approximately 0.3 mL) were collected via orbital plexus into tubes containing sodium heparin at 0.25, 0.5, 1, 2, 3, 5, 7, 9, and 24 hours after oral administration; at 5 min, 15 min, 0.5, 1, 2, 3, 5, 7, 9 and 24 hours after iv administration. Samples were centrifuged for 5 min, at 4° C. with the centrifuge set at 11,000 rpm to separate plasma. The obtained plasma samples were stored frozen at a temperature of about −70° C. until analysis.
Frozen plasma samples were thawed at room temperature and vortexed thoroughly. With a pipette, an aliquot (30 μL) of plasma was transferred into a 1.5-mL conical polypropylene tube. To each sample, 160 μL of acetonitrile were added. The samples were then vigorously vortex-mixed for 1 min. After centrifugation at 11000 rpm for 5 min, a 15 μL aliquot of the supernatant was injected into the LC-MS/MS system for analysis.
Calibration standards were prepared by spiking 30 μL of the 151 standard solutions into 30 μL of heparinized blank rat plasma. The nominal standard concentrations in the standard curve were 1.00, 3.00, 10.0, 30.0, 100, 300, 1000 and 3000 ng/mL.
The analysis was performed using an LC-MS/MS system consisting of the following components—HPLC system: Agilent 1200 series instrument consisting of G1312B vacuum degasser, G1322A binary pump, G1316B column oven and G1367D autosampler (Agilent, USA); MS/MS system: Agilent 6460 triple quadrupole mass spectrometer, equipped with an APCI Interface (Agilent, USA); Data system: MassHunter Software (Agilent, USA).
Chromatographic separation was carried out at room temperature—Analytical column: C8 column (4.6 mm×150 mm I.D., 5 μm, Agilent, USA); Mobile phase: Acetonitrile:10 mM ammonium acetate (75:25, v/v); Flow rate: 0.80 mL/min; Injection volume: 15 μL.
The mass spectrometer was operated in the positive mode. Ionization was performed applying the following parameters: gas temperature, 325° C.; vaporizer temperature, 350° C.; gas flow, 4 L/min; nebulizer, 20 psi; capillary voltage, 4500 V; corona current, 4 μA. 151 was detected using MRM of the transitions m/z 283→m/z 123 and m/z 283→m/z 251, simultaneously. The optimized collision energies of 25 eV and 10 eV were used for m/z 123 and m/z 251, respectively.
Quantification was achieved by the external standard method. Concentrations of the test article were calculated using a weighted least-squares linear regression (W=1/x^2).
The pharmacokinetic parameters were evaluated using WinNonlin version 5.3 (Pharsight Corp., Mountain View, Calif., USA), assuming a non-compartmental model for drug absorption and distribution. • AUC0-t is the area under the plasma concentration-time curve from time zero to last sampling time, calculated by the linear trapezoidal rule. • AUC0-∞ is the area under the plasma concentration-time curve from time zero extrapolating to infinity. • T1/2 is the elimination half-life associated with the terminal (log-linear) elimination phase, which is estimated via linear regression of time vs. log concentrations. • CL is the total body clearance. • Vss is the volume of distribution at steady-state.

[2] = Microsomal stability, mouse microsomes; format: in vitro ADME; settings: relative to verapamil
[3] = Microsomal stability, rat microsomes; format: in vitro ADME; settings: relative to verapamil
[4] = Microsomal stability, dog microsomes; format: in vitro ADME; settings: relative to verapamil
[5] = Microsomal stability, human microsomes; format: in vitro ADME; settings: relative to verapamil
[6] = in vivo
[7] = female dogs, day 4, cited from earlier work
in vivo [8] = settings: rat, po
[9] = Sprague-Dawley (SD), iv, 1 mg/kg, Plasma Concentration of 100
[10] = Sprague-Dawley (SD), po, 10 mg/kg
[11] = Sprague-Dawley (SD), po, 10 mg/kg, Plasma Concentration of 100

Q: With `CN1CCN(C(=O)C2C3CCC(O3)C2C(=O)O)CC1` (centres unmarked) [Compound 100, 3-(4-methylpiperazine-1-carbonyl)-7-oxa-bicyclo[2,2,1]-heptane-2-carboxylic acid] as the compound, how does the concentration at 0.083 h (in vivo [1]; [9]) read?
A: 646 ng/mL

Q: And the concentration at 0.25 h (in vivo [1]; [9])?
A: 345 ng/mL

Q: And the concentration at 0.5 h (in vivo [1]; [9])?
A: 308 ng/mL

Q: And the concentration at 1 h (in vivo [1]; [9])?
A: 257 ng/mL

Q: And the concentration at 2 h (in vivo [1]; [9])?
A: 125 ng/mL

Q: And the concentration at 3 h (in vivo [1]; [9])?
A: 32.2 ng/mL

Q: What about the concentration at 5 h (in vivo [1]; [9]) of the same compound?
A: 10.2 ng/mL

Q: And the AUC(0-t) (in vivo [1]; [10])?
A: 3370 ng·h/mL

Q: What about the AUC(0-inf) (in vivo [1]; [10]) of the same compound?
A: 3430 ng·h/mL

Q: And the Cmax (in vivo [1]; [10])?
A: 1450 ng/mL

Q: And the concentration at 0.5 h (in vivo [1]; [11])?
A: 1450 ng/mL

Q: And the concentration at 1 h (in vivo [1]; [11])?
A: 1160 ng/mL

Q: And the concentration at 2 h (in vivo [1]; [11])?
A: 781 ng/mL

Q: And the concentration at 9 h (in vivo [1]; [11])?
A: 31.3 ng/mL

Q: What about the Tmax (in vivo [1]; [10]) of the same compound?
A: 40.2 min

Q: And the AUC(0-t) (in vivo [1]; Sprague-Dawley, iv, 1 mg/kg)?
A: 681 ng·h/mL

Q: And the AUC(0-inf) (in vivo [1]; Sprague-Dawley, iv, 1 mg/kg)?
A: 694 ng·h/mL

Q: What about the Cmax (in vivo [1]; Sprague-Dawley, iv, 1 mg/kg) of the same compound?
A: 646 ng/mL

Q: What about the MRT (in vivo [1]; Sprague-Dawley, iv, 1 mg/kg) of the same compound?
A: 69.6 min

Q: What about the half-life (in vivo [1]; Sprague-Dawley, iv, 1 mg/kg) of the same compound?
A: 52.8 min

Q: And the Tmax (in vivo [1]; Sprague-Dawley, iv, 1 mg/kg)?
A: 4.98 min

Q: And the “Cmax of 100” value (in vivo [1]; Sprague-Dawley, po, 10 mg/kg)?
A: 1447 ng/mL

Q: What about the “Tmax of 100” value (in vivo [1]; Sprague-Dawley, po, 10 mg/kg) of the same compound?
A: 30 min

Q: What about the AUC(0-t) (in vivo [1]; Sprague-Dawley, po, 10 mg/kg) of the same compound?
A: 2800 ng·h/mL

Q: And the AUC(0-inf) (in vivo [1]; Sprague-Dawley, po, 10 mg/kg)?
A: 2860 ng·h/mL

Q: What about the Cmax (in vivo [1]; Sprague-Dawley, po, 10 mg/kg) of the same compound?
A: 1430 ng/mL

Q: And the MRT (in vivo [1]; Sprague-Dawley, po, 10 mg/kg)?
A: 126 min

Q: And the half-life (in vivo [1]; Sprague-Dawley, po, 10 mg/kg)?
A: 82.8 min

Q: What about the Tmax (in vivo [1]; Sprague-Dawley, po, 10 mg/kg) of the same compound?
A: 30 min

Q: And the “stability in the presence of microsomes” value [2]?
A: stable relative to verapamil

Q: And the “stability in the presence of microsomes” value [3]?
A: stable relative to verapamil

Q: And the “stability in the presence of microsomes” value [4]?
A: stable relative to verapamil

Q: What about the “stability in the presence of microsomes” value [5] of the same compound?
A: stable relative to verapamil

Q: And the “passage of the blood brain barrier (BBB) (statement)” value [6]?
A: does not readily pass the blood brain barrier

Q: What about the AUClast ([7]; 0.15 mg/kg) of the same compound?
A: 335 ng·h/mL

Q: What about the Cmax ([7]; 0.15 mg/kg) of the same compound?
A: 370 ng/mL

Q: What about the Co ([7]; 0.15 mg/kg) of the same compound?
A: 566 ng/mL

Q: What about the T1/2 ([7]; 0.15 mg/kg) of the same compound?
A: 28.2 min

Q: What about the Tmax ([7]; 0.15 mg/kg) of the same compound?
A: 15 min

Q: What about the AUClast ([7]; 0.30 mg/kg) of the same compound?
A: 1020 ng·h/mL

Q: And the Cmax ([7]; 0.30 mg/kg)?
A: 731 ng/mL

Q: And the Co ([7]; 0.30 mg/kg)?
A: 857 ng/mL

Q: And the T1/2 ([7]; 0.30 mg/kg)?
A: 48.6 min

Q: What about the Tmax ([7]; 0.30 mg/kg) of the same compound?
A: 21 min

Q: And the AUClast ([7]; 0.50 mg/kg)?
A: 2120 ng·h/mL

Q: What about the Cmax ([7]; 0.50 mg/kg) of the same compound?
A: 1260 ng/mL

Q: And the Co ([7]; 0.50 mg/kg)?
A: 1930 ng/mL

Q: And the T1/2 ([7]; 0.50 mg/kg)?
A: 72 min

Q: What about the Tmax ([7]; 0.50 mg/kg) of the same compound?
A: 15 min

Q: What about the bioavailability (in vivo [8]) of the same compound?
A: 1%
